In ChEMBL document CHEMBL3885881, “DrugMatrix”:

Species: Rattus norvegicus
Experiment: DrugMatrix - Regimen: Daily Repeat
Type: toxicity, organism-based, Sprague-Dawley
Set-up: regimen Daily Repeat, gender Male, age 6-8 weeks
Conditions: in vivo, po, route oral GAVAGE, vehicle .5 % CMC; for ABSOLUTE BASOPHIL / ABSOLUTE EOSINOPHIL / ABSOLUTE LYMPHOCYTE / ABSOLUTE MONOCYTE / ABSOLUTE SEGMENTED NEUTROPHIL / BASOPHIL / EOSINOPHIL / ERYTHROCYTE COUNT / HEMATOCRIT / HEMOGLOBIN / LEUKOCYTE COUNT / LYMPHOCYTE / MEAN CORPUSCULAR HEMOGLOBIN / MEAN CORPUSCULAR HEMOGLOBIN CONCENTRATION / MEAN CORPUSCULAR VOLUME / MONOCYTE / NEUTROPHIL / NUCLEATED RED BLOOD CELLS / PLATELET COUNT: tissue Blood; for ALANINE AMINOTRANSFERASE / ALBUMIN / ALKALINE PHOSPHATASE / ASPARTATE AMINOTRANSFERASE / BLOOD UREA NITROGEN / CARBON DIOXIDE / CHLORIDE / CHOLESTEROL / CREATINE PHOSPHOKINASE / CREATININE / GLUCOSE / LACTATE DEHYDROGENASE / LIPASE / PHOSPHORUS / POTASSIUM / SODIUM / TOTAL BILIRUBIN / TOTAL PROTEIN / URIC ACID: tissue Plasma
[1] = 0 mg/kg, 72 h, dose level Control, time 3 day
[2] = 0 mg/kg, 120 h, dose level Control, time 5 day
[3] = 100 mg/kg, 72 h, dose level Low, time 3 day

CO[C@H]1/C=C/O[C@@]2(C)Oc3c(C)c(O)c4c(c3C2=O)C2=NC3(CCN(CC(C)C)CC3)NC2=C(NC(=O)/C(C)=C\C=C\[C@H](C)[C@H](O)[C@@H](C)[C@@H](O)[C@@H](C)[C@H](OC(C)=O)[C@@H]1C)C4=O [RIFABUTIN]
ABSOLUTE BASOPHIL [1]: 0 CELLS/uL
ABSOLUTE EOSINOPHIL [1]: 0 CELLS/uL
ABSOLUTE LYMPHOCYTE [1]: 12269.67 CELLS/uL
ABSOLUTE MONOCYTE [1]: 160.33 CELLS/uL
ABSOLUTE SEGMENTED NEUTROPHIL [1]: 970 CELLS/uL
BASOPHIL [1]: 0%
EOSINOPHIL [1]: 0%
ERYTHROCYTE COUNT [1]: 5.76 x10E6/uL
HEMATOCRIT [1]: 36.57%
HEMOGLOBIN [1]: 14.22 G/DL
LEUKOCYTE COUNT [1]: 13.4 x10E3/uL
LYMPHOCYTE [1]: 91.67%
MEAN CORPUSCULAR HEMOGLOBIN [1]: 24.67 pg
MEAN CORPUSCULAR HEMOGLOBIN CONCENTRATION [1]: 38.85 G/DL
MEAN CORPUSCULAR VOLUME [1]: 63.52 fL
MONOCYTE [1]: 1.17%
NEUTROPHIL [1]: 7.17%
NUCLEATED RED BLOOD CELLS [1]: 0.33 /100WBC
PLATELET COUNT [1]: 1250.83 x10E3/uL
ALANINE AMINOTRANSFERASE [1]: 49.17 u/L
ALBUMIN [1]: 4.33 G/DL
ALKALINE PHOSPHATASE [1]: 378.5 u/L
ASPARTATE AMINOTRANSFERASE [1]: 82.17 u/L
BLOOD UREA NITROGEN [1]: 15 mg/dL
CARBON DIOXIDE [1]: 34.33 mmol/L
CHLORIDE [1]: 99.17 MEQ/L
CHOLESTEROL [1]: 71.17 mg/dL
CREATINE PHOSPHOKINASE [1]: 258.67 u/L
CREATININE [1]: 0.18 mg/dL
GLUCOSE [1]: 142.67 mg/dL
LACTATE DEHYDROGENASE [1]: 154.33 u/L
LIPASE [1]: 9 u/L
PHOSPHORUS [1]: 11.67 mg/dL
POTASSIUM [1]: 7.13 MEQ/L
SODIUM [1]: 142.22 MEQ/L
TOTAL BILIRUBIN [1]: 0.18 mg/dL
TOTAL PROTEIN [1]: 5.77 G/DL
URIC ACID [1]: 1.55 mg/dL
ABSOLUTE BASOPHIL [2]: 0 CELLS/uL
ABSOLUTE EOSINOPHIL [2]: 23.33 CELLS/uL
ABSOLUTE LYMPHOCYTE [2]: 14943.67 CELLS/uL
ABSOLUTE MONOCYTE [2]: 32 CELLS/uL
ABSOLUTE SEGMENTED NEUTROPHIL [2]: 1084.33 CELLS/uL
BASOPHIL [2]: 0%
EOSINOPHIL [2]: 0.17%
ERYTHROCYTE COUNT [2]: 5.71 x10E6/uL
HEMATOCRIT [2]: 35.28%
HEMOGLOBIN [2]: 14.27 G/DL
LEUKOCYTE COUNT [2]: 16.08 x10E3/uL
LYMPHOCYTE [2]: 93%
MEAN CORPUSCULAR HEMOGLOBIN [2]: 25.02 pg
MEAN CORPUSCULAR HEMOGLOBIN CONCENTRATION [2]: 40.43 G/DL
MEAN CORPUSCULAR VOLUME [2]: 61.82 fL
MONOCYTE [2]: 0.17%
NEUTROPHIL [2]: 6.67%
NUCLEATED RED BLOOD CELLS [2]: 0.33 /100WBC
PLATELET COUNT [2]: 1274 x10E3/uL
ALANINE AMINOTRANSFERASE [2]: 54.17 u/L
ALBUMIN [2]: 4.22 G/DL
ALKALINE PHOSPHATASE [2]: 373.17 u/L
ASPARTATE AMINOTRANSFERASE [2]: 81.83 u/L
BLOOD UREA NITROGEN [2]: 16.67 mg/dL
CARBON DIOXIDE [2]: 30.33 mmol/L
CHLORIDE [2]: 99 MEQ/L
CHOLESTEROL [2]: 71 mg/dL
CREATINE PHOSPHOKINASE [2]: 273.5 u/L
CREATININE [2]: 0.22 mg/dL
GLUCOSE [2]: 141.83 mg/dL
LACTATE DEHYDROGENASE [2]: 153.67 u/L
LIPASE [2]: 10.33 u/L
PHOSPHORUS [2]: 11.38 mg/dL
POTASSIUM [2]: 7.08 MEQ/L
SODIUM [2]: 142.75 MEQ/L
TOTAL BILIRUBIN [2]: 0.18 mg/dL
TOTAL PROTEIN [2]: 6.1 G/DL
URIC ACID [2]: 1.67 mg/dL
ABSOLUTE BASOPHIL [3]: 0 CELLS/uL
ABSOLUTE EOSINOPHIL [3]: 245.33 CELLS/uL
ABSOLUTE LYMPHOCYTE [3]: 18853.33 CELLS/uL
ABSOLUTE MONOCYTE [3]: 248 CELLS/uL
ABSOLUTE SEGMENTED NEUTROPHIL [3]: 1720 CELLS/uL
BASOPHIL [3]: 0%
EOSINOPHIL [3]: 1%
ERYTHROCYTE COUNT [3]: 5.43 x10E6/uL
HEMATOCRIT [3]: 36.1%
HEMOGLOBIN [3]: 14.33 G/DL
LEUKOCYTE COUNT [3]: 21.07 x10E3/uL
LYMPHOCYTE [3]: 89.33%
MEAN CORPUSCULAR HEMOGLOBIN [3]: 26.5 pg
MEAN CORPUSCULAR HEMOGLOBIN CONCENTRATION [3]: 39.7 G/DL
MEAN CORPUSCULAR VOLUME [3]: 66.67 fL
MONOCYTE [3]: 1.33%
NEUTROPHIL [3]: 8.33%
NUCLEATED RED BLOOD CELLS [3]: 0.67 /100WBC
PLATELET COUNT [3]: 1207.33 x10E3/uL
ALANINE AMINOTRANSFERASE [3]: 65.67 u/L
ALBUMIN [3]: 4.37 G/DL
ALKALINE PHOSPHATASE [3]: 375 u/L
ASPARTATE AMINOTRANSFERASE [3]: 96.33 u/L
BLOOD UREA NITROGEN [3]: 13 mg/dL
CARBON DIOXIDE [3]: 25.67 mmol/L
CHLORIDE [3]: 103 MEQ/L
CHOLESTEROL [3]: 84.33 mg/dL
CREATINE PHOSPHOKINASE [3]: 380 u/L
CREATININE [3]: 0.35 mg/dL
GLUCOSE [3]: 158 mg/dL
LACTATE DEHYDROGENASE [3]: 212.67 u/L
LIPASE [3]: 10.67 u/L
PHOSPHORUS [3]: 12.8 mg/dL
POTASSIUM [3]: 6.31 MEQ/L
SODIUM [3]: 145.97 MEQ/L
TOTAL BILIRUBIN [3]: 0.23 mg/dL
TOTAL PROTEIN [3]: 6.1 G/DL
URIC ACID [3]: 1.97 mg/dL
